# In patent US5763441A, “Compounds for the treatment of disorders related to vasculogenesis and/or angiogenesis” (Sugen, Inc., priority 1995, dated 1998):
# System: Calu-6
# Test: Tumor xenograft growth inhibition, Calu-6 (lung)
# Assay type: in vivo, human
# Conditions: 20 mg/kg/day
# Description: The ability of one of the compounds of the present invention, leflunomide (Compound 40), to inhibit ovarian, melanoma, prostate, lung and mammary tumor cell lines established as SC xenografts was examined. […]
# The tumor cells were implanted subcutaneously into the indicated strains of mice. Treatment was initiated on day 1 post implantation unless otherwise indicated (e.g. treatment of the SCID mouse related to the A375 melanoma cell line began on Day 9). Eight (8) to ten (10) mice comprised each test group.
# Animals. Female athymic mice (BALB/c, nu/nu), BALB/c mice, Wistar rats and Fisher 344 rats were obtained from Simonsen Laboratories (Gilroy, Calif.). Female A/I mice were obtained from Jackson Laboratory (Bar Harbor, Me.). DA rats were obtained from B&K Universal, Inc. (Fremont, Calif.). Athymic R/Nu rats, DBA/2N mice, and BALB/c mice were obtained from Harlan Sprague Dawley (Indianapolis, Ind.). Female C57BL/6 mice were obtained from Taconic (Germantown, N.Y.). All animals were maintained under clean-room conditions in Micro-isolator cages with Alpha-dri bedding. They received sterile rodent chow and water ad libitum.
# Subcutaneous Xenograft Model. Cell lines were grown in appropriate medium as described (See Section 6). Cells were harvested at or near confluency with 0.05% Trypsin-EDTA and pelleted at 450×g for 10 min. Pellets were resuspended in sterile PBS or media (without FBS) to a suitable concentration indicated in the Figure legends and the cells were implanted into the hindflank of mice. Tumor growth was measured over 3 to 6 weeks using venier calipers tumor volumes were calculated as a product of length x width x height unless otherwise indicated. P values were calculated using the Students' t-test. su101 in 50-100 uL excipient (dimethylsulfoxide, PBTE, PBTE6C:D5W, or PBTE:D5W) was delivered by IP injection at concentrations indicated in the Figure legends.
Structure (SMILES),"inhibition, CALU-6 [%]","inhibition, CALU-6 (in words)"
"c1ccc(-c2cnc3cc4ccccc4cc3n2)cc1 [Compound 23, 2-phenyl-1,4-diaza-anthracene]",41,
"N#C/C(=C\c1cc(O)c(O)c(Br)c1)S(=O)(=O)/C(C#N)=C/c1cc(O)c(O)c(Br)c1 [Compound 12, (E)-2-[1-cyano-2-(5-bromo-3,4-dihydroxyphenyl)ethenylsulfonyl]-3-(3-bromo-4,5-dihydroxyphenyl)acrylonitrile]",,no detectable inhibition
"CC(C)(C)c1cc(/C=C(/C#N)c2[nH]nc(N)c2C#N)cc(C(C)(C)C)c1O [Compound 4, (E)-2-[(3-amino-4-cyano)pyrazo-5-yl]-3-(3,5-di-t-butyl-4-hydroxyphenyl)acrylonitrile]",,no significant inhibition
"N#CC(C#N)=Cc1cc(O)c(O)c(I)c1 [Compound 2, (E)-2-cyano-3-(3-iodo-4,5-hydroxyphenyl)acrylonitrile]",,no detectable inhibition

# Same assay, conditions: 40 mg/kg/day
row,Structure (SMILES),"inhibition, CALU-6 (in words)"
1,"N#CC(C#N)=Cc1cc(O)c(O)c(I)c1 [Compound 2, (E)-2-cyano-3-(3-iodo-4,5-hydroxyphenyl)acrylonitrile]",no detectable inhibition

# Target: T1, FLK-1 receptor (Mus musculus, UniProt P35918)
# T1 construct: expressed in transfected cells; host or cells: NIH3T3C7#3 cells (FLK-1 infected NIH3T3)
# Test: ELISA assay to measure kinase activity of FLK-1 receptor in FLK-1/NIH cells
# Assay type: cell-based, murine
# Conditions: not given
# Method: ELISA Assay To Measure Kinase Activity Of FLK-1 Receptor In FLK-1/NIH Cells
# An ELISA assay was conducted to measure the kinase activity of the FLK-1 receptor and more specifically, the inhibition or activiation of protein tyrosine kinase activity on the FLK-1 receptor.
# k. NIH3T3C7#3 Cells (FLK-1 infected cells);
# Protocol. The following protocol was used to conduct the ELISA Assay:
# 1. Coat Corning 96-well elisa plates with 1.0 ug per well Cappel Anti-rabbit IgG antibody in 0.1M Na2CO3 pH 9.6. Bring final volume to 150 ul per well. Coat plates overnight at 4° C. Plates can be kept up to two weeks when stored at 4° C.
# 2. Grow cells in 30 ml of Growth media 9DMEM. 2.0 mM L-Glutamine, 10% FBS) until confluent in 150 cm tissue culture dishes at 37° C., 5% CO2.
# 3. Harvest cells by tyrpsination and seed in Corning 25850 polystyrene 96-well roundbottom cell plates, 25.000 cells/well in 200 uL of growth media.
# 4. Grow cells at least one day at 37° C., 5% CO2.
# 5. Wash cells with D-PBS 1X.
# 6. Add 200 ul/well of starvation media (DMEM, 2.0 mM l-Glutamine, 0.1% FBS). Incubate overnight at 37° C., 5% CO2.
# 7. Dilute Compounds/Extracts 1:20 in polyproplyene 96 well plates using starvation media. Dilute dimethylsulfoxide 1:20 for use in control wells.
# 8. Remove starvation media from 96 well cell culture plates and add 162 ul of fresh starvation media to each well.
# 9. Add 18 ul of 1:20 diluted Compound/Extract dilution (from step #7) to each well plus the 1:20 dimethylsulfoxide dilution to the control wells (+/-VEGF), for a final dilution of 1:200 after cell stimulation. Final dimethylsulfoxide is 0.5%. Incubate the plate at 37° C., 5% CO2 for two hours.
# 10. Remove unbound antibody from Elisa plates by inverting plate to remove liquid. Wash 3 times with TBSW+0.5% Ethanolamine, pH 7.0. Pat the plate on a paper towel to remove excess liquid and bubbles.
# 11. Block plates with TBSW+0.5% Ethanolamine, pH 7.0. 150 ul per well. Incubate plate thirty minutes while shaking on a microtiter plate shaker.
# 12. Wash plate 3 times as described in step 10.
# 13. Add 0.5 ug/well affinity purified anti-flk-1 polyclonal rabbit antiserum. Bring final volume to 150 ul/well with TBSW+0.5k Ethanolamine pH 7.0. Incubate plate for thirty minutes while shaking.
# 14. Add 180 μl starvation medium to the cells and stimulate cells with 20 ul/well 10.0 mM Sodium Ortho Vanadate and 500 ng/ml VEGF (resulting in a final concentration of 1.0 mM Sodium Ortho Vanadate and 50 ng/ml VEGF per well) for eight minutes at 37° C., 5% CO2. Negative control wells receive only starvation medium.
# 15. After eight minutes, media are removed from the cells and washed one time with 200 ul/well PBS.
# 16. Lyse cells in 150 ul/well HNTG while shaking at room temperature for five minutes. HNTG formulation includes sodium ortho vanadate, sodium pyro phosphate and EDTA.
# 17. Wash Elisa plate three times as described in step 10.
# 18. Transfer cell lysates from the cell plate to elisa plate and incubate while shaking for two hours. To transfer cell lysate pipette up and down while scrapping the wells.
# 19. Wash plate three times as described in step 10.
# 20. Incubate Elisa plate with 0.02 ug/well UB40 in TBSW+05% ethanolamine. Bring final volume to 150 ul/well. Incubate while shaking for 30 minutes.
# 21. Wash plate three times as described in step 10.
# 22. Incubate elisa plate with 1:10,000 diluted EIA grade Goat anti-mouse IgG conjugated horseradish peroxidase in TBSW+0.5% ethanolamine, pH 7.0. Bring final volume to 150 ul/well. Incubate while shaking for thirty minutes.
# 23. Wash plate as described in step 10.
# 24. Add 100 ul of ABTS/H202 solution to well. Incubate ten minutes while shaking.
# 25. Add 100 ul of 0.2M HCL for 0.1M HCL final to stop the colordevelopment reaction. Shake 1 minute at room temperature. Remove bubbles with slow stream of air and read the ELISA plate in an ELISA plate reader at 410 nm.
# T1 sequence (P35918 20-1345): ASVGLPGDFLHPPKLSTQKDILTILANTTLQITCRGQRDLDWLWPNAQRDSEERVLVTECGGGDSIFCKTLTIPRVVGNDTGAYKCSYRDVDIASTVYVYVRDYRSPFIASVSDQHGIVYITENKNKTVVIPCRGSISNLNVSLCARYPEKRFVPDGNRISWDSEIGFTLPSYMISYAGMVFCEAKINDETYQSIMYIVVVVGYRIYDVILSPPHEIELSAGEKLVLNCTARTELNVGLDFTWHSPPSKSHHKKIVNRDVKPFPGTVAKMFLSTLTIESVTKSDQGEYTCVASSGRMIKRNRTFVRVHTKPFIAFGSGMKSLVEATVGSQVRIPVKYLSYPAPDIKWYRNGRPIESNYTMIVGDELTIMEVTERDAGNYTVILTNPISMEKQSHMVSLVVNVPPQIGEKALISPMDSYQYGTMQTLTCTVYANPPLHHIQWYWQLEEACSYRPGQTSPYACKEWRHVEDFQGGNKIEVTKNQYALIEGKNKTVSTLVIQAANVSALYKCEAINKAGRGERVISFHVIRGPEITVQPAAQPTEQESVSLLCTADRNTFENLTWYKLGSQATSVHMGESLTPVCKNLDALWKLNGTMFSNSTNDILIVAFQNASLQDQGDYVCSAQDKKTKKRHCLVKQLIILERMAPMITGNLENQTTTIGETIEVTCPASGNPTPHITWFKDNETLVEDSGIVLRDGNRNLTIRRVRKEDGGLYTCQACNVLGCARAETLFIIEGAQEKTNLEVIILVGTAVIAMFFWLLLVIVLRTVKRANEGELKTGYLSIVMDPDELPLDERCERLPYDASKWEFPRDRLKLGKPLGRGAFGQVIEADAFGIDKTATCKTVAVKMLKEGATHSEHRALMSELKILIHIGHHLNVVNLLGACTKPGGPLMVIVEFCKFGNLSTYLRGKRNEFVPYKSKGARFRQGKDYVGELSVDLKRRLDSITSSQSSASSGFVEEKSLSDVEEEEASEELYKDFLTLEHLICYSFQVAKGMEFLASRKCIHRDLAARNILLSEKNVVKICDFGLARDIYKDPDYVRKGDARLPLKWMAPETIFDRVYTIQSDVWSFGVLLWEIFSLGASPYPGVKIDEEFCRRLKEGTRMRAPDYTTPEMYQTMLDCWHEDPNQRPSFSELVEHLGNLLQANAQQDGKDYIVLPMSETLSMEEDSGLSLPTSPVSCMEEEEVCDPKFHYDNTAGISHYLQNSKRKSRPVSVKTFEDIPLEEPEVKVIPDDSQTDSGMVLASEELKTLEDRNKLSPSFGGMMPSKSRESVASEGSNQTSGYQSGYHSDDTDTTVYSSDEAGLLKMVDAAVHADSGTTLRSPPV
row,Structure (SMILES),IC50 [µM]
1,Cc1ccc(Sc2ncnc3ccc(C)cc23)cc1 [Compound 20],17.8
2,"c1ccc(-c2cnc3cc4ccccc4cc3n2)cc1 [Compound 23, 2-phenyl-1,4-diaza-anthracene]",4.4
3,CC1c2nc3ccccc3c(=O)n2C(c2ccc(O)cc2)N1Cc1ccccc1 (stereo not drawn) [Compound 27],3.4
4,"Oc1cccc(Nc2ncnc3ccccc23)c1 [Compound 18, 4-(3-hydroxyphenylamino)-quinazoline]",34.6
5,"COc1cc2nc(Cl)nc(Nc3cccc(Cl)c3)c2cc1OC [Compound 21, 2-chloro-4-(3-chlorophenylamino)-6,7-dimethoxyquinazoline]",9.9
6,"COC(=O)c1ccc(NCc2cc(O)ccc2O)cc1 [Compound 24, N-(2,5-dihydroxylbenzyl)-4-methoxycarbonylaniline]",28.9
7,"Cc1cc2ncc(Nc3ccc(I)cc3)nc2cc1C [Compound 13, 2-[(4-iodophenyl)amino]-6,7-dimethyl quinoxaline]",10.4
8,"N#C/C(=C\c1cc(O)c(O)c(I)c1)C(=O)NCc1ccccc1 [Compound 6, (E)-2-(benzylaminocarbonyl)-3-(3-iodo-4,5-dihydroxyphenyl)acrylonitrile]",21.2
9,"Cc1cc2ncc(Nc3ccc(Cl)c(Cl)c3)nc2cc1C [Compound 17, 2-(3,4-dichlorophenylamino)-6,7-dimethylquinoxaline]",15
10,"N#CC(C(=O)Nc1cccc(C(F)(F)F)c1)C(=S)Nc1ccccc1Cl (stereo not drawn) [Compound 25, N-(2-chlorophenyl)-2-cyano-2-(N-3-trifluorophenylamino-carbonyl)-thioacetamide]",8.5
11,"N#CCS(=O)(=O)/C(C#N)=C/c1cc(O)c(O)c(Br)c1 [Compound 26, (E)-2-cyanomethylsufonyl-3-(3-bromo-4,5-dihydroxyphenyl)acrylonitrile]",11
12,"N#C/C(=C\c1cc(O)c(O)c(Br)c1)S(=O)(=O)/C(C#N)=C/c1cc(O)c(O)c(Br)c1 [Compound 12, (E)-2-[1-cyano-2-(5-bromo-3,4-dihydroxyphenyl)ethenylsulfonyl]-3-(3-bromo-4,5-dihydroxyphenyl)acrylonitrile]",7.1
13,"CC(C)(C)c1cc(/C=C(/C#N)c2[nH]nc(N)c2C#N)cc(C(C)(C)C)c1O [Compound 4, (E)-2-[(3-amino-4-cyano)pyrazo-5-yl]-3-(3,5-di-t-butyl-4-hydroxyphenyl)acrylonitrile]",8.9
14,"Cc1cc2ncc(Nc3cccc(Cl)c3)nc2cc1C [Compound 28, 2-(3-chlorophenylamino)-6,7-dimethylquinoxaline]",16
15,"Cc1ccc2ncnc(Nc3cccc(O)c3)c2c1 [Compound 16, 4-(3-hydroxyphenylamino)-6-methylquinazoline]",35.1
16,"Cc1cc2ncc(-c3ccc(O)c(O)c3)nc2cc1C [Compound 14, 2-(3,4-dihydroxyphenyl) -6,7-dimethylquinoxaline]",9.3
17,"CCCNc1nc2ccccc2nc1Cl [Compound 19, 2-(n-propylamino)-3-chloroquinoxaline]",25.6
18,"N#C/C(=C\c1ccc(O)c(O)c1)C(=O)NCCCCNC(=O)/C(C#N)=C/c1ccc(O)c(O)c1 [Compound 8, (E,E)-2-[[4-[[1-cyano-2-(3,4-dihydroxyphenyl)ethenyl]carbonylamino]-n-butyl]aminocarbonyl]-3-(3,4-dihydroxyphenyl)acrylonitrile]",10.8
19,N#CC(C#N)=NNc1cccc(Cl)c1 [Compound 22],2.3
20,"N#C/C(=C\c1ccc2[nH]ccc2c1)C(=O)c1ccc(O)c(O)c1 [Compound 10, (E)-3-(indol-5-yl)-2-(3,4-dihydroxyphenylcarbonyl)acrylonitrile]",17.7
21,"CC(C)c1cc(/C=C(\C#N)C(=S)NCCCc2ccccc2)cc(C(C)C)c1O [Compound 11, (E)-2-[3-phenyl-n-propylaminothiocarbonyl]-3-(3,5-diisopropyl-4-hydroxyphenyl)acrylonitrile]",9.8

# Same assay, conditions: FLK-1R ELISA, VEGF-stimulated FLK-1/NIH cells
row,Structure (SMILES),IC50 [µM]
1,N#C/C(=C\c1ccc(O)c(O)c1)S(=O)(=O)/C(C#N)=C/c1ccc(O)c(O)c1 [Compound 9],27.4
2,N#C/C(=C\c1cc(O)c(O)c(I)c1)C(=O)NCCCc1ccccc1 [Compound 3],4.9
3,N#C/C(=C\c1ccc(O)c(O)c1)C(=O)NCCNC(=O)/C(C#N)=C/c1ccc(O)c(O)c1 [Compound 7],37.5

# Same assay, conditions: FLK-1R ELISA, VEGF-stimulated FLK-1/NIH cells; read-out: IC50
row,Structure (SMILES),IC50 [µM]
1,"CC(C)(C)c1cc(/C=C(\C#N)C(N)=S)cc(C(C)(C)C)c1O [Compound 1, (E)-2-aminothiocarbonyl-3 (3,5-di-t-butyl-4-hydroxyphenyl)acrylonitrile]",0.8
